These results are taken from patent US12264134B2 (Merck Sharp & Dohme LLC, priority 2018, dated 2025).

For this assay, the target named is IDO1 (Homo sapiens, UniProt P14902). The experiment in a line: IDO1 Cellular Assay in HeLa Cells Stimulated with IFNγ. It counts as cell-based. The following applies: read-out: HeLa Cell Potency, IC50.
Chain of IDO1 (P14902 whole entry): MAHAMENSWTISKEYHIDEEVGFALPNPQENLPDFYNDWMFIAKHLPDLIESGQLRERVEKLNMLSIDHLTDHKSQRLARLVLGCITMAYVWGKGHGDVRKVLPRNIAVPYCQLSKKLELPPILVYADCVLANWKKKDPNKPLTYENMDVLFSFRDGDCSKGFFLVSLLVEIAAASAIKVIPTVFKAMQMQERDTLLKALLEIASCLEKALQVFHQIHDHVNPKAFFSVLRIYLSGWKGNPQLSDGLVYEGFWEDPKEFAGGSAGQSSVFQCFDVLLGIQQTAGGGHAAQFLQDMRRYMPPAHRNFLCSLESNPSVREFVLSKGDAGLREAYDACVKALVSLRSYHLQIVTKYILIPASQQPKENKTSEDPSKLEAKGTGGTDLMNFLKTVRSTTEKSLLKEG
Regarding `Cc1cccc(N2CCN(C(=O)Cn3nc(C(=O)N4CCN5CCCC[C@H]5C4)c4c3CCC4)CC2)c1C` [Example 191, 1-[4-(2,3-dimethylphenyl)piperazin-1-yl]-2-{3-[(9aS)-octahydro-2H-pyrido[1,2-a]pyrazine-2-carbonyl]-5,6-dihydrocyclopenta[c]pyrazol-1(4H)-yl}ethan-1-one], the IC50 – broadly, the concentration at which inhibition is half-maximal – is 0.00292 µM.
The value for `Cc1cccc(N2CCN(C(=O)Cn3nc(C(=O)N4CCCC5(CCNC5=O)C4)c4c3CCC4)CC2)c1C` (stereo not drawn) [Example 193, 7-(1-{2-[4-(2,3-dimethylphenyl)piperazin-1-yl]-2-oxoethyl}-1,4,5,6-tetrahydrocyclopenta[c]pyrazole-3-carbonyl)-2,7-diazaspiro[4.5]decan-1-one] was 0.075 µM.
Then `CC(=O)NC1CCN(C(=O)c2nn(CC(=O)N3CCN(c4cccc(C)c4C)CC3)c3c2CCC3)C1` (stereo not drawn) [Example 194, N-[1-(1-{2-[4-(2,3-dimethylphenyl)piperazin-1-yl]-2-oxoethyl}-1,4,5,6-tetrahydrocyclopenta[c]pyrazole-3-carbonyl)pyrrolidin-3-yl]acetamide], with 0.04 µM; and `Cc1cccc(N2CCN(C(=O)Cn3nc(C(=O)N4CCNCC4)c4c3CCC4)CC2)c1C` [Example 195, 1-[4-(2,3-dimethylphenyl)piperazin-1-yl]-2-[3-(piperazin-1-carbonyl)-5,6-dihydrocyclopenta[c]pyrazol-1(4H)-yl]ethan-1-one], with 0.189 µM; and `Cc1cccc(N2CCN(C(=O)Cn3nc(C(=O)N4CC5C(N)C5C4)c4c3CCC4)CC2)c1C` (stereo not drawn) [Example 196, 2-[3-(6-amino-3-azabicyclo[3.1.0]hexane-3-carbonyl)-5,6-dihydrocyclopenta[c]pyrazol-1(4H)-yl]-1-[4-(2,3-dimethylphenyl)piperazin-1-yl]ethan-1-one], with 0.103 µM.
The value for `Cc1cccc(N2CCN(C(=O)Cn3nc(C(=O)N4C[C@@H](C)N[C@@H](C)C4)c4c3CCC4)CC2)c1C` [Example 197, 1-[4-(2,3-dimethylphenyl)piperazin-1-yl]-2-{3-[(3R,5S)-3,5-dimethylpiperazine-1-carbonyl]-5,6-dihydrocyclopenta[c]pyrazol-1(4H)-yl}ethan-1-one] was 0.0114 µM.
On to `Cc1cccc(N2CCN(C(=O)Cn3nc(C(=O)N4CC[C@@H](N)[C@@H](C)C4)c4c3CCC4)CC2)c1C` [Example 198, 2-{3-[(3S,4R)-4-amino-3-methylpiperidine-1-carbonyl]-5,6-dihydrocyclopenta[c]pyrazol-1(4H)-yl}-1-[4-(2,3-dimethylphenyl)piperazin-1-yl]ethan-1-one], for which the IC50 stood at 0.0896 µM.
The value for `Cc1cccc(N2CCN(C(=O)Cn3nc(C(=O)N4CC5CNC5C4)c4c3CCC4)CC2)c1C` (stereo not drawn) [Example 199, 2-[3-(3,6-diazaspiro[3.2.0]heptane-3-carbonyl)-5,6-dihydrocyclopenta[c]pyrazol-1(4H)-yl]-1-[4-(2,3-dimethylphenyl)piperazin-1-yl]ethan-1-one] was 0.019 µM; that for `Cc1cccc(N2CCN(C(=O)Cn3nc(C(=O)N4CCC(N)CC4)c4c3CCC4)CC2)c1C` [Example 200, 2-[3-(4-aminopiperidine-1-carbonyl)-5,6-dihydrocyclopenta[c]pyrazol-1(4H)-yl]-1-[4-(2,3-dimethylphenyl)piperazin-1-yl]ethan-1-one] was 0.0266 µM; that for `Cc1cccc(N2CCN(C(=O)Cn3nc(C(=O)N4CC[C@@H](F)[C@@H](O)C4)c4c3CCC4)CC2)c1C` [Example 204, 1-[4-(2,3-dimethylphenyl)piperazin-1-yl]-2-[3-[(3S,4R)-4-fluoro-3-hydroxy-piperidine-1-carbonyl]-5,6-dihydro-4H-cyclopenta[c]pyrazol-1-yl]ethanone] was 0.0131 µM.
Then `Cc1cccc(N2CCN(C(=O)Cn3nc(C(=O)N4CCC(O)C(F)(F)C4)c4c3CCC4)CC2)c1C` (stereo not drawn) [Example 205, 2-[3-(3,3-difluoro-4-hydroxy-piperidine-1-carbonyl)-5,6-dihydro-4H-cyclopenta[c]pyrazol-1-yl]-1-[4-(2,3-dimethylphenyl)piperazin-1-yl]ethanone], with 0.0171 µM; and `Cc1cccc(N2CCN(C(=O)Cn3nc(C(=O)N4CC[C@@H](N)[C@H](F)C4)c4c3CCC4)CC2)c1C` [Example 207, [(3R,4R)-1-[1-[2-[4-(2,3-dimethylphenyl)piperazin-1-yl]-2-oxo-ethyl]-5,6-dihydro-4H-cyclopenta[c]pyrazole-3-carbonyl]-3-fluoro-4-piperidyl]ammonium;formate], with 0.028 µM; and `Cc1cccc(N2CCN(C(=O)Cn3nc(C(=O)N4CC[C@H](N)[C@H](F)C4)c4c3CCC4)CC2)c1C` [Example 211, [(3R,4S)-1-[1-[2-[4-(2,3-dimethylphenyl)piperazin-1-yl]-2-oxo-ethyl]-5,6-dihydro-4H-cyclopenta[c]pyrazole-3-carbonyl]-3-fluoro-4-piperidyl]ammonium;formate], with 0.0721 µM.
The value for `Cc1cccc(N2CCN(C(=O)Cn3nc(C(=O)N4CCC(F)(F)C(O)C4)c4c3CCC4)CC2)c1C` (stereo not drawn) [Example 212, 2-[3-(4,4-difluoro-3-hydroxy-piperidine-1-carbonyl)-5,6-dihydro-4H-cyclopenta[c]pyrazol-1-yl]-1-[4-(2,3-dimethylphenyl)piperazin-1-yl]ethanone] was 0.0799 µM; that for `Cc1cccc(N2CCN(C(=O)Cn3nc(C(=O)N4CC[C@@H](N)[C@@H](F)C4)c4c3CCC4)CC2)c1C` [Example 214, [(3S,4R)-1-[1-[2-[4-(2,3-dimethylphenyl)piperazin-1-yl]-2-oxo-ethyl]-5,6-dihydro-4H-cyclopenta[c]pyrazole-3-carbonyl]-3-fluoro-4-piperidyl]ammonium;formate] was 0.105 µM.
Take `Cc1cccc(N2CCN(C(=O)Cn3nc(C(=O)N4CCCCC45CC5)c4c3C[C@H]3C[C@@H]43)CC2)c1C` [Example 215, 2-[(3bR,4aSR)-3-(4-azaspiro[2.5]octane-4-carbonyl)-3b,4,4a,5-tetrahydro-1H-cyclopropa[3,4]cyclopenta[1,2-c]pyrazol-1-yl]-1-[4-(2,3-dimethylphenyl)piperazin-1-yl]ethan-1-one]: the IC50 is 0.00138 µM.
The value for `Cc1cccc(N2CCN(C(=O)Cn3nc(C(=O)N4CCC(O)CC4(C)C)c4c3C[C@H]3C[C@@H]43)CC2)c1C` (stereo partly drawn) [Example 216, 1-[4-(2,3-dimethylphenyl)piperazin-1-yl]-2-[(3bR,4aR)-3-(4-hydroxy-2,2-dimethylpiperidine-1-carbonyl)-3b,4,4a,5-tetrahydro-1H-cyclopropa[3,4]cyclopenta[1,2-c]pyrazol-1-yl]ethan-1-one] was 0.00725 µM; that for `CNC(=O)NC1CCN(C(=O)c2nn(CC(=O)N3CCN(c4cccc(C)c4C)CC3)c3c2[C@@H]2C[C@@H]2C3)CC1` [Example 217, 1-(1-((3bR,4aR)-1-(2-(4-(2,3-dimethylphenyl)piperazin-1-yl)-2-oxoethyl)-3b,4,4a,5-tetrahydro-1H-cyclopropa[3,4]cyclopenta[1,2-c]pyrazole-3-carbonyl)piperidin-4-yl)-3-methylurea] was 0.0021 µM.
